From patent US9150505B2, “Prophylactic or therapeutic agent for diabetes or obesity” (AJINOMOTO CO., INC., priority 2010, dated 2015)
Counter-ions that a name gives are not always drawn.

Biological target: T1, human CaSR (Homo sapiens, UniProt P41180)
T1 construct: expressed in transfected cells; host or cells: 293E cells (EBNA1-expressing HEK293, ATCC No. CRL-10852), transient transfection of hCaSR/pcDNA3.1
T1 sequence (P41180 20-1078): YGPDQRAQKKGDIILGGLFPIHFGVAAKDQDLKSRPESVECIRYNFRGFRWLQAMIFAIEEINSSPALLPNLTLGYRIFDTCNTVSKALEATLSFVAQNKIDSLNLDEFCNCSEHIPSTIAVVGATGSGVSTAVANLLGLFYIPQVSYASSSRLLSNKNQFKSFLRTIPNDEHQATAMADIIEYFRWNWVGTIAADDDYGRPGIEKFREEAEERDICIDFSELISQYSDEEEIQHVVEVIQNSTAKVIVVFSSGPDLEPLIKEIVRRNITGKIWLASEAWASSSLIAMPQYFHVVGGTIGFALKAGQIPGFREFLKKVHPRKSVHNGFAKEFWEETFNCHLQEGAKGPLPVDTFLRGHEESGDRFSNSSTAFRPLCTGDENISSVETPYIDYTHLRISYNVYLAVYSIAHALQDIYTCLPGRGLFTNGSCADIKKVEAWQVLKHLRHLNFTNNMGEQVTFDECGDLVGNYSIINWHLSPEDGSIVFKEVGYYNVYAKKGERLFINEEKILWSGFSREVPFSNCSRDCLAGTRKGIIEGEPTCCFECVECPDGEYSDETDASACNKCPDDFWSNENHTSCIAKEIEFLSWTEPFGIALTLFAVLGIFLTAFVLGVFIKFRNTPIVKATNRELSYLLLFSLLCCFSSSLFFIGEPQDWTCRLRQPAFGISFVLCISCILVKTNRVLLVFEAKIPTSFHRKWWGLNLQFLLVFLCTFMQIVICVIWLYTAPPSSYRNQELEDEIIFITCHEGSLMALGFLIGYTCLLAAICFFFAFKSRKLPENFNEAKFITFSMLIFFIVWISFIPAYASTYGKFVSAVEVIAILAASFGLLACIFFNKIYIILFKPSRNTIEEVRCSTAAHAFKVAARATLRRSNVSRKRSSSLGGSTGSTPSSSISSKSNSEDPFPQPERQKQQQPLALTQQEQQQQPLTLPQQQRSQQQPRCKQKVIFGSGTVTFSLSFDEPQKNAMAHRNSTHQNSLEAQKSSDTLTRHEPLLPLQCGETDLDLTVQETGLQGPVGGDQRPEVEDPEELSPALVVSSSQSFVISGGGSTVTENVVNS
Assay: Assessment of CaSR agonistic activity (Ca2+ fluorescence, FLIPR, hCaSR-transfected 293E cells)
Assay type: cell-based
Conditions: human CaSR-expressing 293E cells, 1.5 mM CaCl2 assay buffer, 3-minute change in fluorescence intensity
Experimental: CaSR gene was prepared according to the method described in Example 1 of WO07/55393. The resulting recombinant plasmid was used to generate human CaSR-expressing plasmid hCaSR/pcDNA3.1.
293E cells (EBNA1-expressing IIEK293 cells, ATCC No. CRL-10852) were cultured in DMEM ([…] Glucose-containing Dulbecco's modified Eagle medium, Nacalai Tesque) containing 10% bovine fetal serum in the presence of 250 μg/ml of G418. The cells were seeded on a 10 cm-diameter petri dish at 1.8×10^6 cells/15 ml, and left to stand in a CO2 incubator (5% CO2, 37° C.) for 24 hours. Thereafter, human CaSR expression plasmid hCaSR/pcDNA3.1 was transfected with transfection reagent Mirus Trans IT 293 (Takara Bio). Following static culture in a CO2 incubator for 24 hours, the cells were harvested with 10% bovine fetal serum-containing DMEM and seeded on a poly-D-lysine coat 384 well plate (Falcon) at 15,000 cells/well. Following static culture in a CO2 incubator for 24 hours, the medium was removed and the resultant was added with 50 μl/well of Ca^2+ fluorescent indicator Calcium 4 Assay Kit (Molecular Devices) dissolved in an assay buffer (146 mM NaCl, 5 mM KCl, 1 mM MgSO4, 1 mg/ml Glucose, 20 mM HEPES (PH 7.2), 1.5 mM CaCl2), and left to stand at 37° C. for an hour and then at room temperature for 30 minutes to allow intake of the indicator. The above-mentioned 384-well plate was transferred to FLIPR (Molecular Devices) and added with 12.5 μl/well of a compound dissolved in a 0.1% BSA-containing assay buffer to measure 3-minute change in the fluorescence intensity.
The difference between maximum and minimum fluorescence intensities before and after compound addition (RFU (Max−Min)) was determined by FLIPR automatic calculation. An activity rate was calculated where RFU (Max−Min) upon addition of a compound at a maximum concentration was defined 100% and RFU (Max−Min) upon addition of DMSO as a substitute for the compound at the same concentration was defined 0%. The rate was subjected to curve fitting using spreadsheet software Xfit to determine EC50 value, i.e., a compound concentration upon 50% activity rate.

| SMILES | EC50 |
| --- | --- |
| Cc1ccc(C(=O)O)cc1NC(=O)NC[C@H](N)C(=O)O [Example 93, 3-({[(2S)-2-amino-2-carboxyethyl]carbamoyl}amino)-4-methylbenzoic acid] | 5000 nM |
| N[C@@H](CNC(=O)Nc1cccc(S(=O)(=O)O)c1)C(=O)O [Example 77, (2S)-2-amino-3-{[(3-sulfophenyl)carbamoyl]amino}propanoic acid] | 18 nM |
| N[C@@H](CCC(=O)Nc1cc(Cl)cc(S(=O)(=O)O)c1O)C(=O)NS(=O)(=O)c1ccccc1 [Example 62, 3-[(4S)-4-amino-4-[(benzenesulfonyl)carbamoyl]butanamide]-5-chloro-2-hydroxybenzene-1-sulfonic acid] | 2300 nM |
| Cc1nnc([C@@H](N)CCC(=O)Nc2cc(Cl)cc(S(=O)(=O)O)c2O)o1 [Example 15, 3-[(4S)-4-amino-4-(5-methyl-1,3,4-oxadiazol-2-yl)butanamide]-5-chloro-2-hydroxybenzene-1-sulfonic acid] | 180 nM |
| COc1cc(NC(=O)NC[C@H](N)C(=O)O)cc(C(=O)O)c1 [Example 101, 3-({[(2S)-2-amino-2-carboxyethyl]carbamoyl}amino)-5-methoxybenzoic acid] | 3600 nM |
| Cc1c(Cl)cc(S(=O)(=O)O)cc1NC(=S)NC[C@H](N)C(=O)O [Example 47, (2S)-2-amino-3-{[(3-chloro-2-methyl-5-sulfophenyl)carbamothioyl]amino}propanoic acid] | 4 nM |
| CN(C)[C@@H](CCC(=O)Nc1cc(Cl)cc(S(=O)(=O)O)c1O)C(=O)O [Example 76, (2S)-4-[(5-chloro-2-hydroxy-3-sulfophenyl)carbamoyl]-2-(dimethylamino)butanoic acid] | 1800 nM |
| N[C@@H](CCC(=O)Nc1cc(Cl)cc(S(=O)(=O)O)c1O)C(=O)NNC(=O)Cc1ccccc1 [Example 17, 3-[(4S)-4-amino-5-oxo-5-(2-phenylacetohydrazide)pentanamide]-5-chloro-2-hydroxybenzene-1-sulfonic acid] | 250 nM |
| COc1ccc(NC(=O)NC[C@H](N)C(=O)O)cc1S(=O)(=O)O [Example 81, (2S)-2-amino-3-{[(4-methoxy-3-sulfophenyl)carbamoyl]amino}propanoic acid] | 3700 nM |
| N[C@@H](CCC(=O)Nc1cc(Cl)cc(S(=O)(=O)O)c1O)c1nnc(Cc2ccccc2)o1 [Example 16, 3-[(4S)-4-amino-4-(5-benzyl-1,3,4-oxadiazol-2-yl)butanamide]-5-chloro-2-hydroxybenzene-1-sulfonic acid] | 880 nM |
| N[C@@H](CNC(=O)Nc1cccc(C(=O)O)c1O)C(=O)O [Example 90, 3-({[(2S)-2-amino-2-carboxyethyl]carbamoyl}amino)-2-hydroxybenzoic acid] | 1000 nM |
| C[C@H](OC(=O)Nc1cccc(S(=O)(=O)O)c1)[C@H](N)C(=O)O [Example 43, (2S,3S)-2-amino-3-{[(3-sulfophenyl)carbamoyl]oxy}butanoic acid] | 7000 nM |
| CN[C@@H](CNC(=O)Nc1cc(Cl)c(C)c(S(=O)(=O)O)c1)C(=O)O [Example 79, (2S)-3-{[(3-chloro-4-methyl-5-sulfophenyl)carbamoyl]amino}-2-(methylamino)propanoic acid] | 313 nM |
| CS(=O)(=O)NC(=O)[C@@H](N)CCC(=O)Nc1cc(Cl)cc(S(=O)(=O)O)c1O [Example 34, 3-[(4S)-4-amino-4-(methanesulfonylcarbamoyl)butanamide]-5-chloro-2-hydroxybenzene-1-sulfonic acid] | 390 nM |
| N[C@@H](CNC(=O)Nc1cccc(C(=O)O)c1)C(=O)O [Example 85, 3-({[(2S)-2-amino-2-carboxyethyl]carbamoyl}amino)benzoic acid] | 1600 nM |
| N[C@@H](CSC(=O)Nc1cccc(S(=O)(=O)O)c1)C(=O)O [Example 4, (2R)-2-amino-3-{[(3-sulfophenyl)carbamoyl]sulfanyl}propanoic acid] | 40 nM |
| N#CCC[C@H](N)COC(=O)Nc1cc(Cl)cc(S(=O)(=O)O)c1O [Example 12, 3-({[(2S)-2-amino-4-cyanobutoxy]carbonyl}amino)-5-chloro-2-hydroxybenzene-1-sulfonic acid] | 1100 nM |

Other lines, results leading:

| EC50 | SMILES |
| --- | --- |
| 490 nM | N[C@@H](CNC(=O)Nc1cc(S(=O)(=O)O)ccc1F)C(=O)O [Example 104, (2S)-2-amino-3-{[(2-fluoro-5-sulfophenyl)carbamoyl]amino}propanoic acid] |
| 39 nM | N[C@@H](CCC(=O)Nc1cc(Cl)cc(S(=O)(=O)O)c1O)C(=O)NO [Example 41, 3-[(4S)-4-amino-4-(hydroxycarbamoyl)butanamide]-5-chloro-2-hydroxybenzene-1-sulfonic acid] |
| 2300 nM | N[C@@H](CNC(=O)Nc1cc(C(=O)O)ccc1Cl)C(=O)O [Example 88, 3-({[(2S)-2-amino-2-carboxyethyl]carbamoyl}amino)-4-chlorobenzoic acid] |
| 1100 nM | Cc1cc(C)c(S(=O)(=O)O)cc1NC(=O)NC[C@H](N)C(=O)O [Example 89, (2S)-2-amino-3-{[(2,4-dimethyl-5-sulfophenyl)carbamoyl]amino}propano is acid] |
| 1000 nM | COc1ccc(S(=O)(=O)O)cc1NC(=O)NC[C@H](N)C(=O)O [Example 82, (2S)-2-amino-3-{[(2-methoxy-5-sulfophenyl)carbamoyl]amino}propanoic acid] |
| 3 nM | COC(=O)[C@@H](N)CNC(=O)Nc1cc(Cl)cc(S(=O)(=O)O)c1O [Example 67, 3-({[(2S)-2-amino-3-methoxy-3-oxopropyl]carbamoyl}amino)-5-chloro-2-hydroxybenzene-1-sulfonic acid] |
| 15000 nM | Cc1ccc(NC(=O)NC[C@H](N)C(=O)O)cc1C(=O)O [Example 99, 5-({[(2S)-2-amino-2-carboxyethyl]carbamoyl}amino)-2-methylbenzoic acid] |
| 1200 nM | N[C@@H](CCC(=O)Nc1cc(Cl)cc(S(=O)(=O)O)c1O)C(=O)NCCc1cccc(Cl)c1 [Example 32, 3-[(4S)-4-amino-4-{[2-(3-chlorophenyl)ethyl]carbamoyl}butanamide]-5-chloro-2-hydroxybenzene-1-sulfonic acid] |
| 21100 nM | CC(=O)Nc1cc(S(=O)(=O)O)cc(NC(=O)NC[C@H](N)C(=O)O)c1O [Example 83, (2S)-2-amino-3-{[(3-acetamide-2-hydroxy-5-sulfophenyl)carbamoyl]amino}propanoic acid] |
| 13000 nM | N[C@@H](CCC(=O)Nc1cccc(S(=O)(=O)O)n1)C(=O)O [Example 42, (2S)-2-amino-4-[(6-sulfopyridine-2-yl)carbamoyl]butanoic acid trifluoroacetic acid salt] |
| 5800 nM | COc1c(NC(=O)NC[C@H](N)C(=O)O)cccc1C(=O)O [Example 100, 3-({[(2S)-2-amino-2-carboxyethyl]carbamoyl}amino)-2-methoxybenzoic acid] |
| 1800 nM | N[C@@H](CNC(=O)Nc1cc(C(=O)O)cc([N+](=O)[O-])c1)C(=O)O [Example 92, 3-({[(2S)-2-amino-2-carboxyethyl]carbamoyl}amino)-5-nitrobenzoic acid] |
